Consider one molecule from patent US9707283B2, “Genetically modified babesia parasites expressing protective tick antigens and uses thereof” (The United States of America as represented by the …, priority 2007, dated 2017).

For assay [1], the system named is B. bovis control parasites transfected with pBS. In words: Growth curves of mock pBS-transfected control parasites with blasticidin. It is filed as cell-based, Babesia bovis. Conditions: blasticidin at 6.4 μg/ml. As for the experimental part:
(§1) Growth characteristics of the blasticidin selected parasite line 1-2-124 were examined and compared with mock pBS-transfected control parasites in the presence or absence of 6.4 μg/ml blasticidin. […] In addition, no differences were observed between growth rates of parasite cell line 1-2-124 and control parasites in the absence of blasticidin.

The test system of assay [2] is B. bovis transfected parasite line 1-2-124 (gfp-bsd). Kind of assay: Growth curves of blasticidin selected parasite line 1-2-124 with blasticidin. Format: cell-based, Babesia bovis. The note with it: blasticidin at 6.4 μg/ml, 10 times higher than used for original selection. As for the experimental part:
as §1

The next assay relates to B. bovis Mo7 strain. Kind of assay: Blasticidin inhibition of B. bovis growth in in vitro cultures. It is filed as cell-based, Babesia bovis. As for the experimental part:
B. bovis parasites of the Mo7 strain were cultured in ˜1 ml cultures in 24 well plates containing 10% bovine red blood cells. Triplicate wells were cultured with or without increasing amounts of blasticidin added to the culture media at […], 2.4, and 4.8 μg/ml, prepared from a 5 mg/ml stock solution of blasticidin (Invitrogen) in sterile water, for three consecutive days. Culture media was replaced daily. The percentage of parasitized erythrocytes (ppe) was estimated by microscopic counting of Diff-Quik (Dade Behring) stained slides as described (Suarez and McElwain, (2008) Exp Parasitol. 118: 498-504). Percentage B. bovis inhibition was calculated by dividing the mean ppe in triplicate blasticidin treated wells by the mean ppe in triplicate control wells grown in the absence of blasticidin, and multiplying by 100.
To determine whether B. bovis growth could be inhibited with blasticidin, and to estimate the concentration of blasticidin appropriate for establishing a blasticidin/blasticidin deaminase (bsd) transfection system, B. bovis Mo7 strain parasites were cultured in the presence of varying concentrations of blasticidin ranging from 0 to 5 μg/ml in triplicate wells. The percentage of parasitized erythrocytes (ppe) in each well was determined for the first three days after splitting the cultures in each well to a starting ppe of 0.5%. […] Subsequent stable transfection experiments were performed using either 0.3 or 0.6 μg/ml, blasticidin.

The test system of assay [3] is Plasmodium falciparum parasites. Conditions: calculated for Plasmodium falciparum parasites, given for comparison; cited from earlier work.

Values after ≈ are worked out from the molar mass of the structure shown.

As usually defined, the IC50 is the concentration at which inhibition is half-maximal.

As to `CN(CC[C@H](N)CC(=O)N[C@H]1C=C[C@H](n2ccc(N)nc2=O)O[C@@H]1C(=O)O)C(=N)N` [blasticidin], in assay [1], the “parasite growth in the presence of blasticidin” value is “not able to grow”. Besides, in assay [2], the “parasite growth with or without blasticidin” value is recorded as “able to grow at similar rates”. Besides, the “50% inhibitory concentration of blasticidin (IC50)” value in the assay on B. bovis Mo7 strain (Mo7 strain, in vitro culture, after three days of drug selection, percentage of parasitized erythrocytes) is ~0.4 µg/mL. In the assay with B. bovis Mo7 strain (Mo7 strain, in vitro culture, three days), the “concentration of blasticidin resulting in negligible parasite growth” value is 0.64 to 1.25 µg/mL. In the assay on B. bovis Mo7 strain (blasticidin dose of 5 μg/ml, after three days in culture), the “infected erythrocytes in stained slides” value is reported as “No B. bovis infected erythrocytes could be detected”. In addition, the IC50 in assay [3] was 0.35 µg/mL (≈ 0.829 µM).
